According to US10827753B2, “Compositions and methods for controlling nematodes” (Monsanto Technology LLC, priority 2007, dated 2020):
Marks after values point to notes of the source that are not given here.

Key:
[1] = tested on: root knot nematode (RKN); test: RKN greenhouse soil assay on cucumber plants; type: in vivo, Meloidogyne incognita
Source text: Cucumber seeds are planted in a sandy soil mixture in two inch square plastic pots. When the cotyledons are fully opened and just as the first leaf begins to emerge, usually 7 days after planting, chemistry for the 7 day treatment is applied. One week later the chemistry for the 0 day treatment is applied. Separate plants are used for each application. The plants are generally in the 1-2 leaf stage now. At least four hours after the chemistry application the pots are inoculated with root knot nematode (RKN) eggs. Plants are rated for galling 14 days after the egg inoculation.
One milligram of chemistry per four pots is equal to one kilogram per hectare of chemical. A standard test uses four replications. For rates above 2 kg/ha, the desired amount of chemical is weighed into a 30 ml vial (example: 8 kg/ha rate=8 mg chemical in 30 ml vial). The chemical is dissolved in 2 ml of appropriate solvent, generally acetone. For rates below 2 kg/ha, 2 milligrams of chemistry is weighed into the vial and dissolved in 2 ml of the solvent. The appropriate amount of chemical concentrate is then pipetted into a separate 30 ml vial and solvent is added to bring the volume to 2 ml (example 0.5 kg/ha=0.5 ml of concentrate+1.5 ml solvent). Each dissolved concentrate is then brought to a total of 20 milliliters using 0.05% Triton X 100 surfactant solution.
Pots to be treated are moist but not saturated. To each of four pots, five milliliters of the appropriate chemical solution is pipetted to the media surface making sure to avoid contact with the base of the plant. Immediately following chemical application, using a mist nozzle, the pot surface is wetted sufficiently to saturate the pot watering in the chemistry. The chemical application is done in the morning.
Nematode eggs, either SCN or RKN, are added to distilled water to create a concentration of 1000 vermiform eggs […]. At least four hours after chemical treatment the eggs are applied to the treated pots plus non-treated check plants. A small hole about 1 cm deep is punched into the pot surface. One milliliter of the nematode egg slurry is pipetted into the hole. Immediately afterwards the hole is gently covered. Watering of the test plants is then restricted to only water as needed to prevent wilt for a period of 24 hours. After the 24 hour restricted watering, normal sub-irrigation watering is done for the duration of the test.

[2] = tested on: Meloidogyne incognita; test: M. incognita miniaturized greenhouse assay on cucumber seedlings (root galling); type: in vivo; parameters: key to 1 ppm gall ratings / 1 ppm gall rating: mean of 3 gall ratings: 0=0-5%, 1=6-20%, 2=21-50%, 3=51-100% root galled; conditions: for 8 ppm gall ratings: average of triplicate gall rating, scale 0-3 (% root mass galled)
Protocol: The test compound is dissolved in an acetone solution and added to water. A sprouted cucumber seedling is placed into a vial with dry sand and the water-chemical solution is added immediately. Twenty four hours later Meloidogyne incognita eggs are added to the vials and 10 to 12 days later the roots are evaluated for nematode galling.
Cucumber seeds are sprouted for 3 days in moist paper towels. Acceptable sprouts should be 3 to 4 cm long with several lateral roots just emerging. Stock solutions of chemistry are prepared in a mixture of acetone and Triton X100 (412 mg in 500 mL) to a final concentration of 5 mg/mL. The chemical stock solution is then added to 10 mL deionized water plus 0.015% Triton X100 and mixed thoroughly. This is enough to test each condition in triplicate. Ten mL dry sand is added to each vial. At this time the solubility of the chemistry is visually determined and recorded as either ppt (large precipitates) or cloudy (fine precipitates). Seedlings are planted by tilting the vial and laying the seedling in the correct orientation so that the cotyledons are just above the sand and then tilting back to cover the radicles with sand. 3.3 ml water/chemical mix is added to each vial and the vials placed in racks under fluorescent light banks. The vials are inoculated two days after planting by adding 500 vermiform M. incognita eggs to each vial in 50 uL of deionized or spring water. The vials are then kept under the fluorescent lamps at ambient room temperature and watered as needed with 1 mL deionized water, usually twice during duration of test. Harvest of the cucumber plants is done 10 to 12 days after inoculation by washing sand off the roots. A root gall rating and visual phytotoxicity rating is assigned using the following scales: Gall rating scale (Gall: % root mass galled): 0=0-5%; 1=6-20%; 2=21-50%; and 3=51-100%. The average of the triplicate gall rating is then calculated: green=0.00-0.33 (no galls); yellow=0.67-1.33 (mild galling); orange=1.67-2.33 (moderate galling); red=2.67-3.00 (severe galling). Visual phytotoxicity scale is also assigned (Vis. tox; visual reduction in root mass compared to the control): rs1=mild stunting; rs2=moderate stunting; rs3=severe stunting.

[3] = tested on: Meloidogyne incognita; test: Summer field evaluation of pre-plant incorporated compounds on squash; type: in vivo; conditions: 2 kg PPI, squash
Protocol: Test plots of 33 cm diameter holes were bored 41 cm deep into clay soil and filled with a mixture of 80% sand and 20% silt loam soil. Technical compound for each treatment was dissolved in 50 ml acetone containing 250 ul of Triton X-100 surfactant. This solution was added to 450 ml water and poured onto 95 liters of sand/soil mixture in a rotating drum mixer. While continuing to rotate the mixing drum 66 grams of chopped, galled, tomato roots was added and thoroughly distributed. The treated soil was sufficient to fill the top 15 cm of each of the 6 replicate plots, thus simulating a PPI treatment. The plots were then watered lightly and a mixture of M. incognita eggs and larvae were injected 5 cm deep at 5 points within the plot (100 k eggs/larvae in 10 ml per plot). Three-week old squash (cv. Liberator III) with 1 fully expanded true leaf was planted 4 days after soil treatment, one per plot.

For Fc1cc(Cl)ccc1-c1noc(-c2cccs2)n1 [compound 5860], the “percent control (galling reduction) relative to the control blank treatment” value ([1]; 0 day treatment, 0.25 kg/ha, test a) was 47^a percent, the “percent control (galling reduction) relative to the control blank treatment” value ([1]; 0 day treatment, 1 kg/ha, test a) was 85^a percent and the “percent control (galling reduction) relative to the control blank treatment” value ([1]; 7 day treatment, 1 kg/ha, test a) was 86^a percent.

For c1ccc(-c2noc(-c3ccco3)n2)cc1 [compound 5383], the “1 ppm gall ratings” value ([2]; Table 1B test a) was 1.33^a.

Brc1cccc(-c2noc(-c3cccs3)n2)c1 [compound 5663] was tested, and the “1 ppm gall rating” value ([2]; Table 1D test b) was 1.67^b, the “8 ppm gall rating” value ([2]; 8 ppm, Table 1D test b) was 0^b (0=0-5%) and the “8 ppm gall ratings” value ([2]; 8 ppm) was 0 (0=0-5%).

For c1csc(-c2nnc(-c3cccc4ccccc34)o2)c1 [compound 5456], the “8 ppm gall ratings” value ([2]; 8 ppm) was 0.67.

Cc1occc1-c1nc(-c2ccc(Cl)cc2)no1 [compound 5867] was tested, and the “1 ppm gall rating” value ([2]; Table 1C test a) was 1^a (1=6-20%).

Cc1ccc(-c2noc(-c3cccs3)n2)cc1 [compound 5623] was tested, and the “8 ppm gall ratings” value ([2]; 8 ppm) was 0 (0=0-5%).

c1ccc(-c2csc(-c3cccs3)n2)cc1 [compound 5645] was tested, and the “1 ppm gall rating” value ([2]; Table 1D test b) was 2^b (2=21-50%) and the “8 ppm gall rating” value ([2]; 8 ppm, Table 1D test b) was 0^b (0=0-5%).

With CCOP(=O)(SC(C)CC)N1CCSC1=O (centres unmarked) [fosthiazate, reference compound] the “0-3 vigor 16 DAP” value [3] was 3.0, the “0-3 vigor 21 DAP” value [3] was 3.0 and the “feeder root (3 = ave) 31 DAP” value [3] was 2.3. The “gall % 31 DAP” value [3] was 5%, the “root wgt (g) 31 DAP” value [3] was 26.4 g and the “top wgt (lbs) 31 DAP” value [3] was 2.01 lbs. The “total fruit (lbs)” value [3] was 1.25 lbs.

For Clc1ccc(-c2noc(-c3ccsc3)n2)cc1 [compound 5885], the “1 ppm gall rating” value ([2]; Table 1C test a) was 1^a (1=6-20%).

For Brc1ccc(-c2nc(-c3cccs3)no2)cc1 [compound 5475], the “8 ppm gall ratings” value ([2]; 8 ppm) was 1.33.

In the case of Clc1ccccc1-c1noc(-c2cccs2)n1 [compound 5738], the “1 ppm gall rating” value ([2]; Table 1D test a) is reported as 1.33^a and the “8 ppm gall rating” value ([2]; 8 ppm, Table 1D test a) is reported as 0^a (0=0-5%).

With Fc1ccc(-c2noc(-c3ccco3)n2)cc1 [compound 5478] the “8 ppm gall ratings” value ([2]; 8 ppm) was 0 (0=0-5%).

In the case of Cc1ccccc1-c1noc(-c2cccs2)n1 [compound 5741], the “1 ppm gall rating” value ([2]; Table 1D test a) is reported as 1^a (1=6-20%) and the “8 ppm gall rating” value ([2]; 8 ppm, Table 1D test a) is reported as 0^a (0=0-5%).

With Brc1ccc(-c2cnc(-c3ccco3)o2)cc1 [compound 5587] the “8 ppm gall ratings” value ([2]; 8 ppm) was 0 (0=0-5%).

In the case of c1cncc(-c2noc(-c3ccco3)n2)c1 [compound 5292], the “8 ppm gall ratings” value ([2]; 8 ppm) is reported as 0.67.

Ic1ccc(-c2noc(-c3ccco3)n2)cc1 [compound 5556] was tested, and the “8 ppm gall ratings” value ([2]; 8 ppm) was 0.33.

With COc1ccc(-c2noc(-c3ccoc3C)n2)cc1 [compound 5869] the “1 ppm gall rating” value ([2]; Table 1C test a) was 1^a (1=6-20%).

For Clc1ccc(-c2noc(-c3ccoc3)n2)cc1 [compound 5882], the “1 ppm gall ratings” value ([2]; Table 1B test a) was 0.67^a and the “1 ppm gall rating” value ([2]; Table 1C test c) was 0.67^c.

In the case of Brc1cccc(-c2nnc(-c3ccco3)o2)c1 [compound 5671], the “8 ppm gall ratings” value ([2]; 8 ppm) is reported as 0.67.

In the case of Clc1cc(Br)ccc1-c1nsc(-c2ccco2)n1 [compound 5961], the “percent control (galling reduction) relative to the control blank treatment” value ([1]; 0 day treatment, 0.05 kg/ha, test c) is reported as “— — 73^c percent”, the “percent control (galling reduction) relative to the control blank treatment” value ([1]; 0 day treatment, 0.1 kg/ha, test c) is reported as “— — 88^c percent” and the “percent control (galling reduction) relative to the control blank treatment” value ([1]; 0 day treatment, 0.25 kg/ha, test c) is reported as “— — 81^c percent”.

For Cc1cccc(-c2noc(-c3cccs3)n2)c1 [compound 5622], the “8 ppm gall ratings” value ([2]; 8 ppm) was 0 (0=0-5%).

Cc1ccccc1-c1nnc(-c2cccs2)o1 [compound 5090] was tested, and the “8 ppm gall ratings” value ([2]; 8 ppm) was 1.67.

Clc1ccc(-c2nnc(-c3ccco3)o2)cc1 [compound 5082] was tested, and the “8 ppm gall ratings” value ([2]; 8 ppm) was 1.67.

With c1ccc(-c2nc(-c3cccs3)cs2)cc1 [compound 1787] the “1 ppm gall rating” value ([2]; Table 1D test b) was 3^b (3=51-100%) and the “8 ppm gall rating” value ([2]; 8 ppm, Table 1D test b) was 1.67^b.

For Cc1cc(Cl)ccc1-c1nnc(-c2ccoc2)o1 [compound 5876], the “1 ppm gall rating” value ([2]; Table 1C test c) was 1.67^c.

FC(F)(F)c1ccc(-c2nnc(-c3cccs3)o2)cc1 [compound 4971] was tested, and the “8 ppm gall ratings” value ([2]; 8 ppm) was 0.67.

In the case of Fc1cc(Cl)ccc1-c1ncc(-c2cccs2)o1 [compound 5970], the “1 ppm gall ratings” value ([2]; Table 1B test e) is reported as 1^e (1=6-20%).

In the case of Brc1ccc(-c2nnc(-c3cccs3)o2)cc1 [compound 4948], the “8 ppm gall ratings” value ([2]; 8 ppm) is reported as 0 (0=0-5%).

FC(F)(F)c1cccc(-c2noc(-c3cccs3)n2)c1 [compound 5212] was tested, and the “8 ppm gall ratings” value ([2]; 8 ppm) was 1 (1=6-20%).

With c1cncc(-c2noc(-c3cccs3)n2)c1 [compound 5297] the “8 ppm gall ratings” value ([2]; 8 ppm) was 0.33.

With Cc1ccc(-c2nnc(-c3cccs3)o2)cc1 [compound 5006] the “8 ppm gall ratings” value ([2]; 8 ppm) was 0 (0=0-5%).

In the case of Brc1cccc(-c2noc(-c3ccco3)n2)c1 [compound 5672], the “8 ppm gall ratings” value ([2]; 8 ppm) is reported as 0 (0=0-5%).

With Cc1cc(Cl)ccc1-c1nc(-c2ccco2)no1 [compound 5969] the “1 ppm gall ratings” value ([2]; Table 1B test e) was 1^e (1=6-20%).

In the case of FC(F)(F)c1ccc(-c2nnc(-c3ccco3)o2)cc1 [compound 5132], the “8 ppm gall ratings” value ([2]; 8 ppm) is reported as 1.33.

With Fc1ccc(-c2cnc(-c3ccco3)o2)cc1 [compound 5618] the “8 ppm gall ratings” value ([2]; 8 ppm) was 1.33.

c1ccc(-c2cc(-c3ccco3)n[nH]2)cc1 [3-(furan-2-yl)-5-phenyl-1H-pyrazole, reference compound] was tested, and the “nematicidal activity (in words, referring to table 1D)” value ([2]; 8 ppm) was “nematicidal activity is seen”.

For Ic1ccc(-c2noc(-c3cccs3)n2)cc1 [compound 5468], the “8 ppm gall ratings” value ([2]; 8 ppm) was 1 (1=6-20%).

In the case of Clc1cccc(-c2nnc(-c3cccs3)o2)c1 [compound 5012], the “8 ppm gall ratings” value ([2]; 8 ppm) is reported as 0.67.

c1ccc(-c2cnc(-c3ccco3)o2)cc1 [compound 5586] was tested, and the “8 ppm gall ratings” value ([2]; 8 ppm) was 0.67.

Cc1cccc(-c2noc(-c3ccco3)n2)c1 [compound 5625] was tested, and the “8 ppm gall ratings” value ([2]; 8 ppm) was 0.33.

In the case of Cc1ccc(-c2nnc(-c3ccco3)o2)cc1 [compound 5666], the “8 ppm gall ratings” value ([2]; 8 ppm) is reported as 1.33.

For Clc1ccc(-c2nnc(-c3ccco3)o2)c(Cl)c1 [compound 5499], the “1 ppm gall ratings” value ([2]; Table 1B test a) was 1^a (1=6-20%) and the “8 ppm gall ratings” value ([2]; 8 ppm) was 0 (0=0-5%).

FC(F)(F)c1cccc(-c2noc(-c3ccco3)n2)c1 [compound 5181] was tested, and the “8 ppm gall ratings” value ([2]; 8 ppm) was 0.33.

Clc1ccc(-c2cnc(-c3ccoc3)o2)cc1 [compound 5887] was tested, and the “1 ppm gall rating” value ([2]; Table 1C test b) was 1^b (1=6-20%).

With Clc1ccc(-c2cnc(-c3ccsc3)o2)cc1 [compound 5886] the “1 ppm gall rating” value ([2]; Table 1C test b) was 1.33^b.

In the case of Cc1ccc(-c2noc(-c3ccco3)n2)cc1 [compound 5735], the “1 ppm gall rating” value ([2]; Table 1D test a) is reported as 2^a (2=21-50%) and the “8 ppm gall rating” value ([2]; 8 ppm, Table 1D test a) is reported as 0^a (0=0-5%).

For Clc1ccc(-c2cnc(-c3cccs3)o2)cc1 [compound 5864], the “1 ppm gall ratings” value ([2]; Table 1B test a) was 1^a (1=6-20%).

c1ccc(-c2cc(-c3ccco3)n[nH]2)cc1 [compound 5725] was tested, and the “1 ppm gall rating” value ([2]; Table 1D test a) was 3^a (3=51-100%) and the “8 ppm gall rating” value ([2]; 8 ppm, Table 1D test a) was 1.33^a.
